Experiments:
[1] = molecular target: T1, phosphorylated Aurora-A CAKD (Homo sapiens, UniProt O14965, C290A/C393A); test: ADP-Glo kinase assay, kemptide substrate; format: biochemical; details: ADP-Glo, phosphorylated Aurora-A CAKD, kemptide; in words
T1 construct: 10 nM Aurora-A 122–403 C290A C393A phosphorylated protein; His (N, cleaved yes); made in house; host or cells: E. coli B834 (no lambda phosphatase)
T1 sequence (O14965 122-403 C290A/C393A): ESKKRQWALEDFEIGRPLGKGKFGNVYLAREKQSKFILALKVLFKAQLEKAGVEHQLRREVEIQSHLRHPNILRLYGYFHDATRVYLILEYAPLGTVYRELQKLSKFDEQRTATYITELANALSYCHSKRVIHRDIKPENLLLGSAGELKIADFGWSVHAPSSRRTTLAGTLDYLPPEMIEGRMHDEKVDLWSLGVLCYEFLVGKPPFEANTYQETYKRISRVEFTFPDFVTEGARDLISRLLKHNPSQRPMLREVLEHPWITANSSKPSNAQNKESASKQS
How it was run: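 Reactions started with 10 μM ATP and 100 μM kemptide, 60 min at room temperature, then ADP-Glo luminescence read-out. Control-subtracted signals from three repeats averaged and fitted to sigmoidal curves for IC50 and EC50.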

[2] = tested on: Aurora-A in U251 and RPE1 cells; test: Western blot, total Aurora-A protein level; format: cell-based, Homo sapiens; details: mitotic U251 and RPE1 lysates, siRNA 48 h
Procedure: Cells were lysed on ice for 30 min in lysis buffer (50 mM tris pH 8.0, 300 mM NaCl, 0.2%(v/v) NP-40, 10%(v/v) glycerol, protease inhibitor cocktail C, phosphatase inhibitor cocktail 3 (Sigma, 1:200 dilution), 100 nM okadaic acid (Enzo, ALX-350-003-C100)). Lysates were then centrifuged at 14,000 × g, 15 min, 4 °C, the supernatants were transferred to a fresh tube, and the pellet was discarded. Protein concentrations were measured by Bradford assay using Protein Assay Dye Reagent Concentrate (Bio-Rad Laboratories, 5000006). NuPage LDS sample buffer, supplemented with NuPAGE sample reducing agent (Invitrogen) were added prior to boiling for 10 min at 90 °C. Equal amounts of protein, between 8–20 µg/lane, were loaded into pre-cast 4–12% Bis-Tris gels (Invitrogen, NP0322BOX) and proteins separated in 1x MOPS buffer (Invitrogen) and transferred to nitrocellulose membrane (0.45 µM). Nitrocellulose was then blocked in 5% milk (wt/v) in TBS, 0.1% Tween (v/v) (TBST) for 1 h. Primary and secondary antibodies were diluted in 5% milk, TBST and incubated overnight at 4 °C or for 1 h at room temperature, respectively. Species-specific secondary antibodies conjugated to horseradish peroxidase (HRP) were used (anti-Mouse, Cytiva NA931V; anti-Rabbit, Cytiva NA934; anti-Sheep, Jackson 713-035-003). Membranes were washed for 1 h in TBST, changing the buffer five times, after each antibody incubation. […]

[3] = tested on: Aurora-A:TACC3 complexes in RPE1 p53-/- cells; test: Proximity ligation assay Aurora-A:TACC3, RPE1 p53-/-; format: cell-based, Homo sapiens; details: siRNA 48 h
Procedure: siRNA depletion was carried out by reverse transfection using oligofectamine (Thermo Scientific, 12252011) and lipofectamine RNAiMax (Thermo Scientific, 13778075), according to the manufacturer’s instructions, for U251 and RPE1 cells, respectively. For immunofluorescence, 1 × 10^5 cells were seeded in six-well plates and simultaneously transfected with 60 pmol siRNA duplex and 3 µl transfection reagent diluted in 200 µl Opti-MEM serum-free medium. Growth medium was added to a final volume of 2 ml. For western blotting, 1 × 10^6 cells were seeded in 10 cm dishes and transfected with 300 pmol siRNA duplex and 15 µl transfection reagent diluted in 1000 µl Opti-MEM. Growth medium was added to a final volume of 10 ml. Cells were incubated with siRNA for 48 h prior to fixation or harvesting. As a negative control (siControl) Silencer select negative control No.1 siRNA was transfected as above. For TACC3 depletion, where two siRNA duplexes were used, 40 pmol of each was transfected per well.
Cells were seeded and fixed as above, then a proximity ligation assay (PLA) was carried out according to the manufacturer’s instructions with the supplied buffers (Navinci, NaveniFlex Cell MR Red, NC.MR.100 Red). All incubations are for 1 h at 37 °C, unless otherwise stated. […]

Row | effect on Aurora-A kinase activity [1] | Compound | total Aurora-A protein levels [2] | PLA foci formation between TACC3 and Aurora-A antibodies [3]
1 | fully inhibited activity | COc1cc(Nc2ncc3c(n2)-c2ccc(Cl)cc2C(c2c(F)cccc2OC)=NC3)ccc1C(=O)O [Alisertib] |  | 
2 |  | 5′-CGGUAGUGAUAAAAGCUCAtt-3′ [siTPX2] | decreased total Aurora-A protein levels | fully prevented both spindle recruitment of TACC3 and PLA foci formation

Reference: paper PMC11574021, “CEP192 localises mitotic Aurora-A activity by priming its interaction with TPX2” (The EMBO Journal, 2024)
